Experimental data published in ChEMBL document CHEMBL1671646, “Identification, characterization, and azole-binding properties of Mycobacterium smegmatis CYP164A2, a homolog of ML2088, the sole cytochrome P450 gene of Mycobacterium leprae” (Antimicrob Agents Chemother, 2009).
pKd: −log10 of the molar value.

Columns and labels:
[1] = Binding affinity to Mycobacterium smegmatis ATCC 700084 CYP164A2 in presence of 0.5 M NaCl at pH7.5; set-up: species or system Mycolicibacterium smegmatis
Cytochrome P450 130 = molecular target: T1, Cytochrome P450 130 (Mycobacterium tuberculosis, UniProt P9WPN5); test: Binding affinity to Mycobacterium tuberculosis CYP130
T1 sequence (P9WPN5 whole entry): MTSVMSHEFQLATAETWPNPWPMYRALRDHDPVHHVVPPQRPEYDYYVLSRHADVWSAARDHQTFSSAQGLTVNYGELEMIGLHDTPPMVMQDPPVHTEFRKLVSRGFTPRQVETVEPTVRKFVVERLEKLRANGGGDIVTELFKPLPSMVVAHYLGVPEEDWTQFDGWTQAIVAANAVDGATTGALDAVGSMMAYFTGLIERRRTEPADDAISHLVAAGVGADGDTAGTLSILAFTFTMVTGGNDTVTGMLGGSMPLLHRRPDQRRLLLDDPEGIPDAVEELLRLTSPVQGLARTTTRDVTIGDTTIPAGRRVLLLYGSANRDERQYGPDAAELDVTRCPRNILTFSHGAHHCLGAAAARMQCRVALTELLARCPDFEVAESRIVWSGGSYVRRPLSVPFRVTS

[2] = Binding affinity to Mycobacterium smegmatis ATCC 700084 CYP51 at pH7.5; set-up: species or system Mycolicibacterium smegmatis
[3] = Binding affinity to Mycobacterium smegmatis ATCC 700084 CYP51 in presence of 0.5 M NaCl at pH7.5; set-up: species or system Mycolicibacterium smegmatis
[4] = Binding affinity to Mycobacterium smegmatis ATCC 700084 CYP164A2 at pH7.5; set-up: species or system Mycolicibacterium smegmatis
[5] = molecular target: T2, Sterol 14alpha-demethylase (Mycobacterium tuberculosis, UniProt P9WPP9)
T2 sequence (P9WPP9 whole entry): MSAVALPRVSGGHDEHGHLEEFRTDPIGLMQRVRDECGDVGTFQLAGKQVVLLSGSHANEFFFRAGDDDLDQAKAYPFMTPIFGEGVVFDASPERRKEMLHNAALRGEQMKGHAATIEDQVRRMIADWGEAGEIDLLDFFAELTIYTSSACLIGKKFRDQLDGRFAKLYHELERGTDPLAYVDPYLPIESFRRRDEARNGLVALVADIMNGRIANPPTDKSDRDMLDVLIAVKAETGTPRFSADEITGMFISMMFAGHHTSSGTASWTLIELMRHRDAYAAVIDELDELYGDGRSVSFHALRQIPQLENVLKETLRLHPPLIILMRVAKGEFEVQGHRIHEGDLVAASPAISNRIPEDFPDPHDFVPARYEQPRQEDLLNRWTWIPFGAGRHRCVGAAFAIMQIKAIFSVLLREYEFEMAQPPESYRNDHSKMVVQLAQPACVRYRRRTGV
Description: Binding affinity to Mycobacterium tuberculosis CYP51

[6] = test system: Mycolicibacterium smegmatis; test: Selectivity ratio, ratio of Kd for Mycobacterium smegmatis ATCC 700084 CYP164A2 to Kd for Mycobacterium smegmatis ATCC 700084 CYP51
[7] = Selectivity ratio, ratio of Kd for Mycobacterium smegmatis ATCC 700084 CYP164A2 to Kd for Mycobacterium tuberculosis CYP121
Mycocyclosin synthase = molecular target: T3, Mycocyclosin synthase (Mycobacterium tuberculosis, UniProt P9WPP7); test: Binding affinity to Mycobacterium tuberculosis CYP121
T3 sequence (P9WPP7 whole entry): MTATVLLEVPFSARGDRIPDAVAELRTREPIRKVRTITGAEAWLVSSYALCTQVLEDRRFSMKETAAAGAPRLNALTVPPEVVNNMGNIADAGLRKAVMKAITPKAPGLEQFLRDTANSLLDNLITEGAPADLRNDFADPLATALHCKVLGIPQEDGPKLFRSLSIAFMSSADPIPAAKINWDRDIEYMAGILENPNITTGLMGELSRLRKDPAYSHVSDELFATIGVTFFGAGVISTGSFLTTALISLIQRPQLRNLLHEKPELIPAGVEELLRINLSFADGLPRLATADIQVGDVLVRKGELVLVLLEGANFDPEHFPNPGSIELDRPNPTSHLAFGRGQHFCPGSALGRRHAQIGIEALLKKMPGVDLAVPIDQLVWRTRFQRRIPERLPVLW

[8] = test system: Mycolicibacterium smegmatis; test: Selectivity ratio of Kd for Mycobacterium smegmatis ATCC 700084 CYP164A2 in presence of 0.5 M NaCl to Kd for Mycobacterium smegmatis ATCC 700084 CYP164A2
[9] = molecular target: T4, Lanosterol 14-alpha demethylase (Bos taurus, UniProt Q4PJW3); test: Binding affinity to bovine CYP51
T4 sequence (Q4PJW3 whole entry): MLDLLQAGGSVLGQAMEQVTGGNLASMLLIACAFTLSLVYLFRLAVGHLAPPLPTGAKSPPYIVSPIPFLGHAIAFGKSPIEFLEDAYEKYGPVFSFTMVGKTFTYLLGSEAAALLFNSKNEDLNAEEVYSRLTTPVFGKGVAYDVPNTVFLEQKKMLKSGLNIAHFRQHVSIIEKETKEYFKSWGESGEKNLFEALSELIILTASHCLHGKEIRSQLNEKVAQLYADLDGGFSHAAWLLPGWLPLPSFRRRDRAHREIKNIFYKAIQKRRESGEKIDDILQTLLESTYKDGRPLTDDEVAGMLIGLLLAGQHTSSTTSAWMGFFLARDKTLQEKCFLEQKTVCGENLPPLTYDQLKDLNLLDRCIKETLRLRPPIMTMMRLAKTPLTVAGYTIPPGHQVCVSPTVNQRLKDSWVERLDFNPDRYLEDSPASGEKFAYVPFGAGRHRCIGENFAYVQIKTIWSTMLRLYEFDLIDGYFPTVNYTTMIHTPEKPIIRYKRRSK

[10] = test system: Mycolicibacterium smegmatis; test: Selectivity ratio, ratio of Kd for Mycobacterium smegmatis ATCC 700084 CYP164A2 in presence of 0.3 M NaCl to Kd for Mycobacterium smegmatis ATCC 700084 CYP164A2
[11] = Binding affinity to Mycobacterium smegmatis ATCC 700084 CYP164A2 in presence of 2 M NaCl; set-up: species or system Mycolicibacterium smegmatis
[12] = Binding affinity to Mycobacterium smegmatis ATCC 700084 CYP164A2 in presence of 0.3 M NaCl; set-up: species or system Mycolicibacterium smegmatis
[13] = Binding affinity to Mycobacterium smegmatis ATCC 700084 CYP164A2 in presence of 0.2 M NaCl; set-up: species or system Mycolicibacterium smegmatis
[14] = Binding affinity to Mycobacterium smegmatis ATCC 700084 CYP164A2 in presence of 1 M NaCl; set-up: species or system Mycolicibacterium smegmatis
[15] = Binding affinity to Mycobacterium smegmatis ATCC 700084 CYP164A2 in presence of 0.1 M NaCl; set-up: species or system Mycolicibacterium smegmatis
[16] = Binding affinity to Mycobacterium smegmatis ATCC 700084 CYP164A2 in presence of 0.05 M NaCl; set-up: species or system Mycolicibacterium smegmatis

Compound | pKd ([1]; read-out: Kd) | pKd [2] | pKd [3] | pKd [4] | Ratio [8] | other results
Clc1ccccc1C(c1ccccc1)(c1ccccc1)n1ccnc1 [CLOTRIMAZOLE] | 5.58 | 6.21 | 6.37 | 5.92 | – | pKd (Cytochrome P450 130): 4.88
Clc1ccc(COC(Cn2ccnc2)c2ccc(Cl)cc2Cl)cc1 (stereo not given) [ECONAZOLE] | – | 6.06 | 5.78 | 5.60 | – | pKd [1]: 5.03; pKd [5]: 6.70; Ratio [6]: 2; Ratio [7]: 17
OC(Cn1cncn1)(Cn1cncn1)c1ccc(F)cc1F [FLUCONAZOLE] | – | 4.71 | 5.23 | – | – | pKd (Mycocyclosin synthase): 5.22
CCC(C)n1ncn(-c2ccc(N3CCN(c4ccc(OCC5COC(Cn6cncn6)(c6ccc(Cl)cc6Cl)O5)cc4)CC3)cc2)c1=O (stereo not given) [ITRACONAZOLE] | 5.95 | 5.90 | 5.52 | 6.11 | 3 | –
CC(=O)N1CCN(c2ccc(OCC3COC(Cn4ccnc4)(c4ccc(Cl)cc4Cl)O3)cc2)CC1 (stereo not given) [KETOCONAZOLE] | 5.13 | 5.13 | 5.34 | 5.24 | 3 | pKd [9]: 6.49
Clc1ccc(COC(Cn2ccnc2)c2ccc(Cl)cc2Cl)c(Cl)c1 (stereo not given) [MICONAZOLE] | 5.25 | 5.94 | 6.03 | 5.61 | – | pKd [5]: 6.70; Ratio [6]: 2; Ratio [7]: 17
C[C@@H](c1ncncc1F)[C@](O)(Cn1cncn1)c1ccc(F)cc1F [VORICONAZOLE] | 4.71 | 5.23 | 5.34 | 5.49 | 3 | Ratio [10]: 12; pKd [11]: 4.88; pKd [12]: 4.47; pKd [13]: 4.70; pKd [14]: 5.01; pKd [15]: 4.75; pKd [16]: 5.08
